The values that follow come from ChEMBL document CHEMBL1201862, “PubChem BioAssay data set” (2004).

By IC50 is commonly meant the point on the concentration scale where inhibition reaches its midpoint. One may read the CC50 as the concentration at which the toxic effect on the cells reaches its halfway point. The term EC50 denotes the concentration giving half of the maximal effect. Usually AC50 stands for the midpoint of the concentration-response curve, whichever way the signal moves.

Test [1] has as its target T1, Calpain-2 catalytic subunit (Sus scrofa, UniProt P43367).
T1 sequence (P43367 whole entry): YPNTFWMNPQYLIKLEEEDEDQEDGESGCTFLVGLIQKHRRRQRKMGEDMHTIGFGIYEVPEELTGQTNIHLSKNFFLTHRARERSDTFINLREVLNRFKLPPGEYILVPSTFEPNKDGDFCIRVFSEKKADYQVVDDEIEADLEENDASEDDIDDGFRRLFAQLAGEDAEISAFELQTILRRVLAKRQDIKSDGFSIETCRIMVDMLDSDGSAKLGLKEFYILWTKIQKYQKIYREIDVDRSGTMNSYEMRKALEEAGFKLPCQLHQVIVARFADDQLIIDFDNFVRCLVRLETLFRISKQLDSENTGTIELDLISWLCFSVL
The experiment in a line: m-calpain protease blockers, concentration series – biochemical, fluorogenic peptide substrate, dose response (AID 1420). It is filed as functional.

Test [2] in a line: viability loss in Vero cells – cytotoxicity control for Vif-APOBEC3G degradation inhibitor project, dose response (AID 1117358). It is filed as functional. The note with it: Vero.
In test [3] the target is E3 ubiquitin-protein ligase Mdm2 (Homo sapiens, UniProt Q00987). The experiment in a line: MDM2-luc reporter signal enhancers, multi-concentration potency testing, MDM2 ubiquitin-protein ligase inhibitor program, whole-cell format, luminescence detection, 384-well microplate (AID 1394).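 Note: MDM2 E3 inhibitors raise luminescence so EC50 is for signal enhancement.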 It is filed as functional.
The test system of test [4] is BJ. The test is described as follows: BJ-TERT fibroblast viability loss – cell-based, RAS-independent, luminescence, dose response (AID 1933). It is filed as functional. To be noted: Homo sapiens.
For test [5], the system named is BJ. The test is described as follows: cells. It is filed as functional, cell-based. To be noted: Homo sapiens.
A short description of test [6]: DRD fibroblast viability loss – cell-based, non-viral oncogenic, luminescence, dose response (AID 1934). It is filed as functional. To be noted: Homo sapiens.
Test [7] deals with T2, Replicative DNA helicase DnaB (Mycobacterium tuberculosis, UniProt P9WMR3).
T2 sequence (P9WMR3 whole entry): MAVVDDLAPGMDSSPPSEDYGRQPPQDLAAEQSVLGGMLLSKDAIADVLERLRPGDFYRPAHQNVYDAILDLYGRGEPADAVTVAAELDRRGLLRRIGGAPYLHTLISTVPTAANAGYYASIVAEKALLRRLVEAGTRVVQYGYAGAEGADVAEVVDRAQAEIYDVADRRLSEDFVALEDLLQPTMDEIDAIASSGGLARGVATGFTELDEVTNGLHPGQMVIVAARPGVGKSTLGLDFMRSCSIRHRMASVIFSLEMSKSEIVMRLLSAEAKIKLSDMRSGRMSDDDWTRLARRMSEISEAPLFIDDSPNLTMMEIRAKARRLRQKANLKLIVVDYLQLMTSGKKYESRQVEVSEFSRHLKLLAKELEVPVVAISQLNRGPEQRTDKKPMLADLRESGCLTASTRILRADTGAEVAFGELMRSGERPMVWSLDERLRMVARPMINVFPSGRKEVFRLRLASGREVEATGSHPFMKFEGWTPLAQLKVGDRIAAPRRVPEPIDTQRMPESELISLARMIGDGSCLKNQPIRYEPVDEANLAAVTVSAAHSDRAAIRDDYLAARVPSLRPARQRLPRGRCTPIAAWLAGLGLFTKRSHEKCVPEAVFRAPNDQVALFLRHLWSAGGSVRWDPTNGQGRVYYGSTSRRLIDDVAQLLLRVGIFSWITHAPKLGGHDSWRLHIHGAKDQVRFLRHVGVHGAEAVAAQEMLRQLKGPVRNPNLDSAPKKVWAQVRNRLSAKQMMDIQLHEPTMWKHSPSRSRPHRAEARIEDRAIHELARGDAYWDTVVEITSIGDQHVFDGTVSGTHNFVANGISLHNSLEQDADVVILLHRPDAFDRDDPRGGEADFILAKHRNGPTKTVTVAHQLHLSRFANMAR
The experiment in a line: DnaB intein splicing inhibitors, dose response, biochemical, cell-free fluorescence (AID 449749). It is filed as functional.

In the next test the target is T3, Protein RecA (Mycobacterium tuberculosis, UniProt P9WHJ3).
T3 sequence (P9WHJ3 whole entry): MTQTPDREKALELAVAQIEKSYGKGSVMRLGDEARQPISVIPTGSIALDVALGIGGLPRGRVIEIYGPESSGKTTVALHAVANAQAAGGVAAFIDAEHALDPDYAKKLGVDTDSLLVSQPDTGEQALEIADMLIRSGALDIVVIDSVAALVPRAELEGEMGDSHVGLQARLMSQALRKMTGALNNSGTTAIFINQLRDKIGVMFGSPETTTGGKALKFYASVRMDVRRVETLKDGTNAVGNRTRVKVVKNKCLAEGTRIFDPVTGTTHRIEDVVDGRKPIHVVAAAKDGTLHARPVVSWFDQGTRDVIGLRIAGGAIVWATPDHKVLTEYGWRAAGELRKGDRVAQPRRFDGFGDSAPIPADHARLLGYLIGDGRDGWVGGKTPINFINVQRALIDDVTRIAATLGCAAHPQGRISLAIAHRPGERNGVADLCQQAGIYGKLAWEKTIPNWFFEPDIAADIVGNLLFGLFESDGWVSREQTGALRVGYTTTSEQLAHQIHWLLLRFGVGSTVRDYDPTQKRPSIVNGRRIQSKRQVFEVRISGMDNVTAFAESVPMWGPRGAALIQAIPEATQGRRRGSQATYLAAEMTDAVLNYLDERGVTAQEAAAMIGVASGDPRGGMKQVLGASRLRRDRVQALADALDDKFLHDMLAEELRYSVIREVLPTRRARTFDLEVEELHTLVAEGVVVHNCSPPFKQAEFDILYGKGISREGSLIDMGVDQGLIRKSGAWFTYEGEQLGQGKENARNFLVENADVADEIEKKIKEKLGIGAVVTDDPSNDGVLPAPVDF
The experiment in a line: Fluorescence Cell-Free Homogeneous Dose Retest to Identify Inhibitors of RecA-Intein Splicing Activity. [Related pubchem assays (depositor defined):AID2097, AID2223, AID489010, AID492950]. It is filed as functional.

A further test has as its system Vero. The experiment in a line: mammalian cell viability reduction – secondary assay, cytotoxicity control for West Nile virus antiviral project, dose response (AID 1650). It is filed as functional. The note with it: Chlorocebus sabaeus.
For a further test, the system named is HEK293. The experiment in a line: cells. To be noted: Homo sapiens. It is filed as functional, cell-based.
Test [8] concerns the target T4, Nuclear receptor subfamily 0 group B member 1 (Homo sapiens, UniProt P51843).
T4 sequence (P51843 whole entry): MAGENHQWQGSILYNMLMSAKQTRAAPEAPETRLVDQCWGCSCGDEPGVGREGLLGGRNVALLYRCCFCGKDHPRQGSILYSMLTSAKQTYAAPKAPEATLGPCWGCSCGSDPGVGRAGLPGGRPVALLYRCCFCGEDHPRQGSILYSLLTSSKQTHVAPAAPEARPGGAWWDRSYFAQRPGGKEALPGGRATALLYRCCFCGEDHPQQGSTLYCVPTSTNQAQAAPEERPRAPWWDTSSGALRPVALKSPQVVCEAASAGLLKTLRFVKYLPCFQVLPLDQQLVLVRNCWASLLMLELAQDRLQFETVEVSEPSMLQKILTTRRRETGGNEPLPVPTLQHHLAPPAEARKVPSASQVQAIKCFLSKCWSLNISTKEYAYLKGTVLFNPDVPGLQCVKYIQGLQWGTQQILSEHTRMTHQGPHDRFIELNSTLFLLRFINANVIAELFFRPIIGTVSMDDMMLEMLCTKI
The experiment in a line: Luminescence-based cell-based high throughput dose response assay for inhibitors of the orphan nuclear receptor subfamily 0, group B, member 1 (DAX1; NR0B1). [Related pubchem assays (depositor defined):AID504766, AID504790]. It is filed as functional.

The target of test [9] is T5, DNA repair and recombination protein RAD54-like (Homo sapiens, UniProt Q92698).
T5 sequence (Q92698 whole entry): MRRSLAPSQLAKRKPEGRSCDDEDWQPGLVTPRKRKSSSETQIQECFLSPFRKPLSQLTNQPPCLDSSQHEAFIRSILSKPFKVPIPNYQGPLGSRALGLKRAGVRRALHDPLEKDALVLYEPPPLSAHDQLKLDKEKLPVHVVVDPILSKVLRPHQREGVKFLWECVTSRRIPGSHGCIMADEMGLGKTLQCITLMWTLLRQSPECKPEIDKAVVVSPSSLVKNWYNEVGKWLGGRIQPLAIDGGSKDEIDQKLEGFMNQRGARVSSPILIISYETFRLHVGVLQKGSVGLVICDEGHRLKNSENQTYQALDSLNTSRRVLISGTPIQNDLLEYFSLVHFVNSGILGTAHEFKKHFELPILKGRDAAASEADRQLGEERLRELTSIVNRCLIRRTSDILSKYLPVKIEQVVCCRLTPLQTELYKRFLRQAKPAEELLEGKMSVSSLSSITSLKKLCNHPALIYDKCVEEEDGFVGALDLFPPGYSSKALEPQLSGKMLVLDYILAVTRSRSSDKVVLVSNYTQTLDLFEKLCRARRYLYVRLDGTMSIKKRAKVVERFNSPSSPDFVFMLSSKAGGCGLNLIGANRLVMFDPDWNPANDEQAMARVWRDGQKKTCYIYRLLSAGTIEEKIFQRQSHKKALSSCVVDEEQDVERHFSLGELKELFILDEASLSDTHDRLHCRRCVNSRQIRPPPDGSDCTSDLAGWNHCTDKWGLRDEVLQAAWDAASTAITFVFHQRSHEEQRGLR
The test is described as follows: RAD54 Holliday junction migration blockers – biochemical, fluorescence, cherry-picked samples, dose series, confirmation (AID 651657). It is filed as functional.

In test [10] the target is T6, DNA repair protein RAD52 homolog (Homo sapiens, UniProt P43351).
T6 sequence (P43351 whole entry): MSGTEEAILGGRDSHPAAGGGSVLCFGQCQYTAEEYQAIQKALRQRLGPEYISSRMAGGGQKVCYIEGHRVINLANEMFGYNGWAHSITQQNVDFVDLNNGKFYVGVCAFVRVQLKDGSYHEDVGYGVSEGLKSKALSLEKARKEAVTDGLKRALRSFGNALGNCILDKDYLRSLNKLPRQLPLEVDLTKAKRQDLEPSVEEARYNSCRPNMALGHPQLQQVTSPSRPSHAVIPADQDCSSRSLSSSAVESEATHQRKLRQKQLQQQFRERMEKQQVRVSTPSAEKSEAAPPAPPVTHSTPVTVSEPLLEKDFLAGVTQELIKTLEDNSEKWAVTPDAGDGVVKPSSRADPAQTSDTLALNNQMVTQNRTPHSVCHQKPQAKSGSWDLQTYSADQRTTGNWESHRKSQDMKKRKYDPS
It is filed as functional, biochemical.

Test [11] deals with E3 ubiquitin-protein ligase UHRF1 (Homo sapiens, UniProt Q96T88). The experiment in a line: Counterscreen for inhibitors of 5-meCpG-binding domain protein 2 (MBD2): TRFRET-based biochemical high throughput dose response assay to identify inhibitors of binding of ubiquitin-like with PHD and ring finger domains 1 (UHRF1) to methylated oligonucleotide.
Test [12] concerns the target T7, Low molecular weight phosphotyrosine protein phosphatase (Homo sapiens, UniProt P24666).
T7 sequence (P24666 whole entry): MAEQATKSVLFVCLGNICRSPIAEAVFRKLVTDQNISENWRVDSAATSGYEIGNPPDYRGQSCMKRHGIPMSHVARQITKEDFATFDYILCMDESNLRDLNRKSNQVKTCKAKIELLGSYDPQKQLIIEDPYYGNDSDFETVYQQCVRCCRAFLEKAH
The experiment in a line: inhibition of LMPTP-A enzymatic activity – biochemical, OMFP substrate, fluorescence intensity, set 2, dose response (AID 743307). It is filed as functional.

Test [13] deals with T7, Low molecular weight phosphotyrosine protein phosphatase. The experiment in a line: inhibition of human LMPTP enzyme activity – biochemical, absorbance, pNPP substrate, LMPTP-A isoform, set 2, orthogonal assay, dose response (AID 743308). It is filed as functional.

Calls of active or inactive are those of the source. A value given as a limit tells only on which side of the number the result lay.

Chain of E3 ubiquitin-protein ligase Mdm2 (Q00987 whole entry): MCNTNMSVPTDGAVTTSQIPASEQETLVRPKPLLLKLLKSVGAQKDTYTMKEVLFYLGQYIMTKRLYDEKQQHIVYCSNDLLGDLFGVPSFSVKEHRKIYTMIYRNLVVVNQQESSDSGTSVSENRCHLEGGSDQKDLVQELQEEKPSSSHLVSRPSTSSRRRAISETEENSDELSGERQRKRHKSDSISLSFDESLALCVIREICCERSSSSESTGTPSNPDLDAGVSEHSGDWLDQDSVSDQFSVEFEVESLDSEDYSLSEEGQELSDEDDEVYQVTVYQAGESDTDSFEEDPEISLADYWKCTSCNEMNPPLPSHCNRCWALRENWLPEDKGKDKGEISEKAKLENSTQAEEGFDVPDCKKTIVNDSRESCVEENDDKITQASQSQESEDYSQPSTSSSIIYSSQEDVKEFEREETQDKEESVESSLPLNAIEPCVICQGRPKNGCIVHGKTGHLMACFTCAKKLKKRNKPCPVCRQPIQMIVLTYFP
Chain of E3 ubiquitin-protein ligase UHRF1 (Q96T88 whole entry, the tested form may be a part): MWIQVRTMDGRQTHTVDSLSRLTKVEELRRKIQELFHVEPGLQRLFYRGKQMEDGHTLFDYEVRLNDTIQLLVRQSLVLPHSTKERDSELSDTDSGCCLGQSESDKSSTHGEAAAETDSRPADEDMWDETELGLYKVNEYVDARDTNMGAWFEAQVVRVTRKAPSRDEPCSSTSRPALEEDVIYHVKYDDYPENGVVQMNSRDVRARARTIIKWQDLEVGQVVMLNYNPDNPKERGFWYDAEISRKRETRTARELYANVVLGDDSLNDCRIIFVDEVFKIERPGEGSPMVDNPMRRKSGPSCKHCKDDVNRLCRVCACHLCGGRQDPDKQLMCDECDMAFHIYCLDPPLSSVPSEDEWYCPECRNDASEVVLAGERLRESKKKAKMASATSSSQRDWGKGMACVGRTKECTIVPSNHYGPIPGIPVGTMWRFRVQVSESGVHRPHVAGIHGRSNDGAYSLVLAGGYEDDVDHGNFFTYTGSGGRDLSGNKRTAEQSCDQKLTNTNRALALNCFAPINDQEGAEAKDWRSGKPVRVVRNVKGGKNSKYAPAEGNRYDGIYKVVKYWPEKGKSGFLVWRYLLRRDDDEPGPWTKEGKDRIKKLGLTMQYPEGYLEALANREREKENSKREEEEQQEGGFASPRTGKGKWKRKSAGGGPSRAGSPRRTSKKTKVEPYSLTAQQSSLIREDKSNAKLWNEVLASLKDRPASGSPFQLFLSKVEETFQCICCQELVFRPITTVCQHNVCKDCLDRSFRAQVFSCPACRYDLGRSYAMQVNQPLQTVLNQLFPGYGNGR

In the case of `Cc1cc(-c2ccccc2)nc(Oc2ccc(C(C)(C)C)cc2)c1S(C)(=O)=O`, in test [1], the IC50 was > 50 µM (not active). In test [2], the CC50 is > 40 µM (active).
On to `Cc1ccc(C=C2C(Cl)=C(Cl)C(Cl)=C2Cl)cc1`, for which the EC50 in [3] is 780 nM (active); in the test on BJ [4], 5.3 µM (inconclusive); with BJ [5], 6.03 µM (inconclusive); in test [6] it was 5.03 µM (inconclusive); on Protein RecA, 5.66 µM (active). Besides, in [7], the AC50 is > 380 µM (inactive).
As for `CCOC(=O)c1cnc2c(ccc3ccccc32)c1NCCCN(C)C`, in the test on Vero, the CC50 is > 100 µM (active). Besides, the IC50 was > 67.5 µM (inactive) in the test on HEK293, > 67.5 µM (inactive) in [8] and 35.7 µM (inactive) in [11]. The AC50 was 3.38 µM (active) in test [9] and 1.38 µM (active) in [10].
`CC(C)Nc1nc(-c2ccccc2)nc2ccccc12`: the IC50 in [12] is 15 µM (active); in [13], 35.8 µM (inactive).
